From patent US20250000766A1, “ANTIMICROBIAL ESTERS FOR SKIN AND SCALP CARE” (SYMRISE AG, priority 2021, published 2025)
Where two headings read alike, the source gives them in different places.

Columns and labels:
M. sympodialis DSM 6171 = test: Agar dilution test, growth inhibition (MIC) of M. sympodialis DSM 6171; format: cell-based; settings: MLN agar, 7 days at 30° C.
Experimental: (§1) The fatty acid esters and their mixtures were tested for growth inhibition against Malassezia. The following reference strains were included:
(§2) Tests were performed in 6 well plates on solid media using agar dilution tests. Stock solutions of test substances were prepared in DMSO. Lower test concentrations were obtained by diluting stock solutions in DMSO.
(§3) Briefly, microorganisms are inoculated on modified Leeming & Notman (MLN) agar. A well grown plate is harvested in a 0.8% NaCl solution. Dilutions of test substances are prepared according to the concentration range required for the test. 5 μl of the test sample and controls are complemented with 500 μl MLN agar and mixed by shaking. 200 μl of liquid MLN per well are added onto the solidified agar. Afterwards, 20 μl of inoculum solution is added, with except of the blanks, and samples are incubated for 7 days at 30° C. Typical concentrations to be tested are 5000 ppm, 2500 ppm, and 1:1 dilutions from 1000 ppm (500 ppm, 250 ppm, etc).
(§4) Appropriate controls are included to show the growth of organisms without antifungal substances and antifungal activity of reference substances.

M. globosa CBS 7966 = test: Agar dilution test, growth inhibition (MIC) of M. globosa CBS 7966; format: cell-based; settings: MLN agar, 7 days at 30° C.
Experimental: as §1, §2, §3, §4

M. restricta = tested on: M. restricta; set-up: unit not given here; settings: M. restricta strain 7877; cited from earlier work
M. globosa = tested on: M. globosa; set-up: unit not given here; settings: cited from earlier work
M. sympodialis = tested on: M. sympodialis; set-up: unit not given here; settings: cited from earlier work
M. restricta CBS 7877 = test: Agar dilution test, growth inhibition (MIC) of M. restricta CBS 7877; format: cell-based; settings: MLN agar, 7 days at 30° C.
Experimental: as §1, §2, §3, §4

| Molecule | Minimal inhibitory concentration (MIC) (M. sympodialis DSM 6171) | Minimal inhibitory concentration (MIC) (M. globosa CBS 7966) | MIC (M. restricta) | MIC (M. globosa; M. globosa strain 7966) | MIC (M. globosa; M. globosa strain PM1) | MIC (M. sympodialis; M. sympodialis strain 6171) | MIC (M. sympodialis; M. sympodialis strain 7222) | MIC (M. sympodialis; M. sympodialis strain 7979) | MIC (M. sympodialis; M. sympodialis strain 42132) | Minimal inhibitory concentration (MIC) (M. restricta CBS 7877) | MIC (M. globosa; M. globosa strain 7705) |
| --- | --- | --- | --- | --- | --- | --- | --- | --- | --- | --- | --- |
| polyglyceryl-3 caprylate [Polyglyceryl-3-caprylate] | 2.500 ppm | 1.000 ppm |  |  |  |  |  |  |  |  |  |
| CCCCCCCC(=O)OCC [Ethyl caprylate, ethyl caprylate] |  |  | 4,000 | 1,000 | 1,000 | 1,000 | 1,000 | 1,000 | 1,000 |  |  |
| sorbitan caprylate | 5.000 ppm | 1.000 ppm |  |  |  |  |  |  |  | 2.500 ppm |  |
| xylityl sesquicaprylate | 2.500 ppm | 1.000 ppm |  |  |  |  |  |  |  | 2.500 ppm |  |
| CCCCCCCC(=O)OCC(O)CO (stereo not drawn) [Glyceryl monocaprylate, glyceryl monocaprylate] |  |  | 300 | 1,000 |  | 2,000 | 1,000 | 1,000 | 1,000 |  | 1,000 |
| CCCCCCCC(=O)OCCCO [3-Hydroxypropyl caprylate, 3-hydroxypropyl caprylate] |  |  | 1,000 | 1,000 | 500 | 2,000 | 1,000 | 2,000 | 1,000 |  | 1,000 |
